Measured values published in ChEMBL document CHEMBL3763052, “Novel N-acyl-carbazole derivatives as 5-HT7R antagonists” (Eur J Med Chem, 2016).

Experiments:
[1] = molecular target: T1, 5-hydroxytryptamine receptor 7 (Homo sapiens, UniProt P34969); assay: Displacement of [3H]LSD from 5-HT7 receptor (unknown origin) expressed in CHO-K1 cells by liquid scintillation counting method; type: cell-based
[2] = molecular target: T1, 5-hydroxytryptamine receptor 7; assay: Binding affinity to recombinant 5-HT7 receptor (unknown origin) after 1.5 hrs by radioligand displacement assay
[3] = molecular target: T2, 5-hydroxytryptamine receptor 1A (Homo sapiens, UniProt P08908); assay: Binding affinity to recombinant 5-HT1A receptor (unknown origin) after 1.5 hrs by radioligand displacement assay
T2 sequence (P08908 whole entry): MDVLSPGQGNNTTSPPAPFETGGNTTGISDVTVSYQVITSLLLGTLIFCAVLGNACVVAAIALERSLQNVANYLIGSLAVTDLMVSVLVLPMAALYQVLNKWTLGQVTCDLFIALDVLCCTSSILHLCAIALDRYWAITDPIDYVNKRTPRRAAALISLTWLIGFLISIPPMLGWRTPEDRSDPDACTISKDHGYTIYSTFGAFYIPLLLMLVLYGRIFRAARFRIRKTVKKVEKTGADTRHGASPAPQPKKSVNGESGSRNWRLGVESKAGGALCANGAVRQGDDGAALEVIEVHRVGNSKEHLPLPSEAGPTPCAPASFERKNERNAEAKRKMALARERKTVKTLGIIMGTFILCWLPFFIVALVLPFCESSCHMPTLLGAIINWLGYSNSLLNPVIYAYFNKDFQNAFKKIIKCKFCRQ

Homo sapiens [4] = organism: Homo sapiens; assay: Selectivity index, ratio of Ki for recombinant 5-HT1A receptor (unknown origin) to Ki for recombinant 5-HT7 receptor (unknown origin)
[5] = molecular target: T3, 5-hydroxytryptamine receptor 1B (Homo sapiens, UniProt P28222); assay: Binding affinity to recombinant 5-HT1B receptor (unknown origin) at 10 uM after 1.5 hrs by radioligand displacement assay
T3 sequence (P28222 whole entry): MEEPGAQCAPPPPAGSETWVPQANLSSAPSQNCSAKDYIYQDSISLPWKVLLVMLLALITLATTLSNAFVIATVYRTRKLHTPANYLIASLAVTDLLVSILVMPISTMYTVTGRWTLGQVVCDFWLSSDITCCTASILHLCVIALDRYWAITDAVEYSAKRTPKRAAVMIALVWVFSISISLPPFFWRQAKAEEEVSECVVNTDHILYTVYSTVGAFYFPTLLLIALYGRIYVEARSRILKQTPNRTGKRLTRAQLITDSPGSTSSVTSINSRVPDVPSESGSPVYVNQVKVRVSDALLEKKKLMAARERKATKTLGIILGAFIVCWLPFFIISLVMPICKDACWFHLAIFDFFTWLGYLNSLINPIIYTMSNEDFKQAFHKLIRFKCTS

[6] = molecular target: 5-hydroxytryptamine receptor 1D (Homo sapiens, UniProt P28221); assay: Binding affinity to recombinant 5-HT1D receptor (unknown origin) after 1.5 hrs by radioligand displacement assay
Sequence of 5-hydroxytryptamine receptor 1D (P28221 whole entry): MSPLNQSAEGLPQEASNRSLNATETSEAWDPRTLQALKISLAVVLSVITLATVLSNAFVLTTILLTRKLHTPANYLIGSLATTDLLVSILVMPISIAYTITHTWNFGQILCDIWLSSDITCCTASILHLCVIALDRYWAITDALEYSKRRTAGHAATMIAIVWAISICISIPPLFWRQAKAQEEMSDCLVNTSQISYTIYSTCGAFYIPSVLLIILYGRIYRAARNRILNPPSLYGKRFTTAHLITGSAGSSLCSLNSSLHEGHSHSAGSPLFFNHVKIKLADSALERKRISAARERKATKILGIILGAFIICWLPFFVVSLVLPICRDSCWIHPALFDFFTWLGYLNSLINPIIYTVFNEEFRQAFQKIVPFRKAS

Homo sapiens [7] = organism: Homo sapiens; assay: Selectivity index, ratio of Ki for recombinant 5-HT1D receptor (unknown origin) to Ki for recombinant 5-HT7 receptor (unknown origin)
[8] = molecular target: T4, 5-hydroxytryptamine receptor 2A (Homo sapiens, UniProt P28223); assay: Binding affinity to recombinant 5-HT2A receptor (unknown origin) at 10 uM after 1.5 hrs by radioligand displacement assay
T4 sequence (P28223 whole entry): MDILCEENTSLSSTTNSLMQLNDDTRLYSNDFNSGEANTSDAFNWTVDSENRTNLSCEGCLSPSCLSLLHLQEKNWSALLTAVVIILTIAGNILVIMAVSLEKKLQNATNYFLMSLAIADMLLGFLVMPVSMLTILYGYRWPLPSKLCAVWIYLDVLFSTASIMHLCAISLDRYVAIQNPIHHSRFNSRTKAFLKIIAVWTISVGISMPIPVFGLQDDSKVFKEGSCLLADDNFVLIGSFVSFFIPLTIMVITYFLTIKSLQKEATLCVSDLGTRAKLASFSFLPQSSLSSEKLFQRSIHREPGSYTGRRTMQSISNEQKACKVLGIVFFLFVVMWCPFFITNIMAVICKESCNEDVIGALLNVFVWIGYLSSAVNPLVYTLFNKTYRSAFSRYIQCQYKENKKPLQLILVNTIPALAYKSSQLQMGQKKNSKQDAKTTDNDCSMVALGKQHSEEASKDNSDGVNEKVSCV

[9] = molecular target: 5-hydroxytryptamine receptor 2B (Homo sapiens, UniProt P41595); assay: Binding affinity to recombinant 5-HT2B receptor (unknown origin) after 1.5 hrs by radioligand displacement assay
Sequence of 5-hydroxytryptamine receptor 2B (P41595 whole entry): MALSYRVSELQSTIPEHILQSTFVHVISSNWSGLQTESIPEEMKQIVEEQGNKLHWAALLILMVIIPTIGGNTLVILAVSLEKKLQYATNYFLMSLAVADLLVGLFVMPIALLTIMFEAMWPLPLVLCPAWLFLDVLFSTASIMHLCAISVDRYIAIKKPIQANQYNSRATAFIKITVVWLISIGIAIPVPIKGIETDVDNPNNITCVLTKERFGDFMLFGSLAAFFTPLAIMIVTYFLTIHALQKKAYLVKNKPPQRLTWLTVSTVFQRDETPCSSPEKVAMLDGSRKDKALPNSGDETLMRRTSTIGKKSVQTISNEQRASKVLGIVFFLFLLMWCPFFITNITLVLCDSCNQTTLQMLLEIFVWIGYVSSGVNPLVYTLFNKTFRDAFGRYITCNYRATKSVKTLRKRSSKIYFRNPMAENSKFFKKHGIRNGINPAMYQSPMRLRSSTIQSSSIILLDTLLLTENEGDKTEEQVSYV

Homo sapiens [10] = organism: Homo sapiens; assay: Selectivity index, ratio of Ki for recombinant 5-HT2B receptor (unknown origin) to Ki for recombinant 5-HT7 receptor (unknown origin)
[11] = molecular target: T5, 5-hydroxytryptamine receptor 2C (Homo sapiens, UniProt P28335); assay: Binding affinity to recombinant 5-HT2C receptor (unknown origin) after 1.5 hrs by radioligand displacement assay
T5 sequence (P28335 whole entry): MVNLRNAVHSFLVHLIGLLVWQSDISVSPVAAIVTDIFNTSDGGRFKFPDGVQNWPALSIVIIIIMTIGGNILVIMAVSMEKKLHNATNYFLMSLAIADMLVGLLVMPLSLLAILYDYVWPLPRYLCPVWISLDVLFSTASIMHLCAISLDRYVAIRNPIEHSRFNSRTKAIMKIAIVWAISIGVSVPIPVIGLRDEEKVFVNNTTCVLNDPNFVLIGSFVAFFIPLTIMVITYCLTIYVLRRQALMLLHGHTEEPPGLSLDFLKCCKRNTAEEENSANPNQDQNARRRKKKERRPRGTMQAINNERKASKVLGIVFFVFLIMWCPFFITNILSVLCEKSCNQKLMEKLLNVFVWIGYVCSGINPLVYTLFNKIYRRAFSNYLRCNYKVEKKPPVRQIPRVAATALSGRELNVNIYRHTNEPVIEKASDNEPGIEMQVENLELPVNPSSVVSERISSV

Homo sapiens [12] = organism: Homo sapiens; assay: Selectivity index, ratio of Ki for recombinant 5-HT2C receptor (unknown origin) to Ki for recombinant 5-HT7 receptor (unknown origin)
[13] = molecular target: T6, 5-hydroxytryptamine receptor 3A (Homo sapiens) (UniProt P46098); assay: Binding affinity to recombinant 5-HT3 receptor (unknown origin) at 10 uM after 1.5 hrs by radioligand displacement assay
T6 sequence (whole entry): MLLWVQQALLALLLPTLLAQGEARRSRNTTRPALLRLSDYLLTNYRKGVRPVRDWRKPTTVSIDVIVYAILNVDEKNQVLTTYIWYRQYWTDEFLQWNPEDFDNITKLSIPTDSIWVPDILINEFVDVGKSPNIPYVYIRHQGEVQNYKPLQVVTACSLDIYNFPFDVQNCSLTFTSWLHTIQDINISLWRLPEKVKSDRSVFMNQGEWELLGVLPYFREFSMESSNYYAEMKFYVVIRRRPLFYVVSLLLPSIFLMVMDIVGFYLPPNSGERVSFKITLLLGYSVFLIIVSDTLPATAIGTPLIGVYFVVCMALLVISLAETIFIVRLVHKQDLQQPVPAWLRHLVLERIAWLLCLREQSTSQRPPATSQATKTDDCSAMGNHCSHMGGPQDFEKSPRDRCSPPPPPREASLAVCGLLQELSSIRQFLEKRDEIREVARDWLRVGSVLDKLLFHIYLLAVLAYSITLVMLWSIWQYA

[14] = molecular target: 5-hydroxytryptamine receptor 5A (Homo sapiens, UniProt P47898); assay: Binding affinity to recombinant 5-HT5 receptor (unknown origin) after 1.5 hrs by radioligand displacement assay
Sequence of 5-hydroxytryptamine receptor 5A (P47898 whole entry): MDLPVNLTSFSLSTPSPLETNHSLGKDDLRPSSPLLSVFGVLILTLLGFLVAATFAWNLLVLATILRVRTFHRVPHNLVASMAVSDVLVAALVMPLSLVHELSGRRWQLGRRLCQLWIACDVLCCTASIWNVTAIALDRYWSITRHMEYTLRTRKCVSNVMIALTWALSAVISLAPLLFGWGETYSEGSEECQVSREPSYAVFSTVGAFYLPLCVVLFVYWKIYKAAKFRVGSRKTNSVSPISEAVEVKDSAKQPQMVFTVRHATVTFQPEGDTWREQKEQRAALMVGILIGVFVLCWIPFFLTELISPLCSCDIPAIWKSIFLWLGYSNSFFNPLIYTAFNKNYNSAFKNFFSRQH

Homo sapiens [15] = organism: Homo sapiens; assay: Selectivity index, ratio of Ki for recombinant 5-HT5 receptor (unknown origin) to Ki for recombinant 5-HT7 receptor (unknown origin)
[16] = molecular target: T7, 5-hydroxytryptamine receptor 6 (Homo sapiens, UniProt P50406); assay: Binding affinity to recombinant 5-HT6 receptor (unknown origin) after 1.5 hrs by radioligand displacement assay
T7 sequence (P50406 whole entry): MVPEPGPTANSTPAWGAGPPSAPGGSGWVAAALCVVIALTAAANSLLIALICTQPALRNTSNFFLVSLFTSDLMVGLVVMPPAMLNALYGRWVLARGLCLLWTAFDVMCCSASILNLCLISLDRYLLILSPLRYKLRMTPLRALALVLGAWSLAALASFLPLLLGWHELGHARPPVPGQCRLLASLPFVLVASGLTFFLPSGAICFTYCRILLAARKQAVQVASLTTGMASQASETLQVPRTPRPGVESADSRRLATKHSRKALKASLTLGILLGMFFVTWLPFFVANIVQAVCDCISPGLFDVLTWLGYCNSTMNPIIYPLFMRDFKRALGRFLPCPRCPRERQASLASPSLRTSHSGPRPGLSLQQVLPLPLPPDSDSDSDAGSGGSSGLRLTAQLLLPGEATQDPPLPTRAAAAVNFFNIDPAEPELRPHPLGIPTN

Homo sapiens [17] = organism: Homo sapiens; assay: Selectivity index, ratio of Ki for recombinant 5-HT6 receptor (unknown origin) to Ki for recombinant 5-HT7 receptor (unknown origin)
[18] = molecular target: T4, 5-hydroxytryptamine receptor 2A; assay: Binding affinity to recombinant 5-HT2A receptor (unknown origin) after 1.5 hrs by radioligand displacement assay
Mus musculus = assay: Antidepressant activity in ICR mouse assessed as immobility time at 50 mg/kg, iv administered 30 mins before testing by forced swim test (reference value: 159.1 sec); type: functional
[19] = molecular target: T3, 5-hydroxytryptamine receptor 1B; assay: Binding affinity to recombinant 5-HT1B receptor (unknown origin) after 1.5 hrs by radioligand displacement assay
[20] = molecular target: T7, 5-hydroxytryptamine receptor 6; assay: Binding affinity to recombinant 5-HT6 receptor (unknown origin) at 10 uM after 1.5 hrs by radioligand displacement assay
[21] = molecular target: T1, 5-hydroxytryptamine receptor 7; assay: Displacement of [3H]LSD from 5-HT7 receptor (unknown origin) expressed in CHO-K1 cells at 10 uM by liquid scintillation counting method; type: cell-based

T1 sequence (P34969 whole entry): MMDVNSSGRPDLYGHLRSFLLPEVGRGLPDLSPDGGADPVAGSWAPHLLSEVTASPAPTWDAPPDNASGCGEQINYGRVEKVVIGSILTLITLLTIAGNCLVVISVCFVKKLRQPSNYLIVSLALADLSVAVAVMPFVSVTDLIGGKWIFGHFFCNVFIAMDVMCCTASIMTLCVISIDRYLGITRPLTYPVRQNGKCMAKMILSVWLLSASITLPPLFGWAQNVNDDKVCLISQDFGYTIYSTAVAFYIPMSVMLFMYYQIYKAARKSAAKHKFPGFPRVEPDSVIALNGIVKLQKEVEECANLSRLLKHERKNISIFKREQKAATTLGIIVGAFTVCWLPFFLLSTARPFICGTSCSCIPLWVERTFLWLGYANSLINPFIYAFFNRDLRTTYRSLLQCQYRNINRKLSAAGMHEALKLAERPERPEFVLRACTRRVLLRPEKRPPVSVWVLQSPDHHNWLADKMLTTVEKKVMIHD

O=C(CCCCCN1CCCC1)n1c2ccccc2c2ccccc21
Ki [1]: 1050 nM

CN(CCCCC(=O)n1c2ccccc2c2ccccc21)Cc1ccccc1
Ki [1]: 513 nM

O=C(CCCCN1CCCC1)n1c2ccccc2c2ccccc21
Ki [1]: 2160 nM

O=C(CCCCCN1CCC(Cc2ccccc2)CC1)n1c2ccccc2c2ccccc21
Ki [1]: 252 nM

O=C(CCCCCN1CCC(c2ccccc2)CC1)n1c2ccccc2c2ccccc21
Ki [1]: 157 nM

CCCCN(C)CCCCCC(=O)n1c2ccccc2c2ccccc21
Ki [1]: 680 nM

O=C(CCCCCN1CCOCC1)n1c2ccccc2c2ccccc21
Ki [1]: 1310 nM

O=C(CCCCCN1CCN(c2ccccc2O)CC1)n1c2ccccc2c2ccccc21
Ki [1]: 38 nM
Ki [2]: 38 nM
Ki [3]: 148 nM
Ratio Ki (Homo sapiens [4]): 3.9
inhibition [5]: 48%
Ki [6]: 28 nM
Ratio Ki (Homo sapiens [7]): 0.74
inhibition [8]: 13%
Ki [9]: 101 nM
Ratio Ki (Homo sapiens [10]): 2.7
Ki [11]: 1390 nM
Ratio Ki (Homo sapiens [12]): 37
inhibition [13]: 41%
Ki [14]: 933 nM
Ratio Ki (Homo sapiens [15]): 25
Ki [16]: 595 nM
Ratio Ki (Homo sapiens [17]): 16

CCCCN(C)CCCCC(=O)n1c2ccccc2c2ccccc21
Ki [1]: 1280 nM

CC1CCN(CCCCC(=O)n2c3ccccc3c3ccccc32)CC1
Ki [1]: 592 nM

O=C(CCCCN1CCC(Cc2ccccc2)CC1)n1c2ccccc2c2ccccc21
Ki [1]: 312 nM

CC(=O)N1CCN(CCCCC(=O)n2c3ccccc3c3ccccc32)CC1
Ki [1]: 1070 nM

O=C(CCCCCN1CCCCCC1)n1c2ccccc2c2ccccc21
Ki [1]: 616 nM

O=C(CCCCN1CCN(c2ccccc2O)CC1)n1c2ccccc2c2ccccc21
Ki [1]: 86 nM
Ki [3]: 22 nM
Ratio Ki (Homo sapiens [4]): 0.26
inhibition [5]: 37%
Ki [6]: 1400 nM
Ratio Ki (Homo sapiens [7]): 16
Ki [18]: 257 nM
Ki [9]: 83 nM
Ratio Ki (Homo sapiens [10]): 0.97
Ki [11]: 1520 nM
Ratio Ki (Homo sapiens [12]): 18
inhibition [13]: 41%
Ki [14]: 337 nM
Ratio Ki (Homo sapiens [15]): 3.9
Ki [16]: 879 nM
Ratio Ki (Homo sapiens [17]): 10

CC1CCCN(CCCCCC(=O)n2c3ccccc3c3ccccc32)C1 (stereo unspecified)
Ki [1]: 550 nM

CNCCC(Oc1ccc(C(F)(F)F)cc1)c1ccccc1 (stereo unspecified) [FLUOXETINE]
Time (Mus musculus): 83.9 s

CC1CC(C)CN(CCCCCC(=O)n2c3ccccc3c3ccccc32)C1 (stereo unspecified)
Ki [1]: 833 nM

CN1CCN(CCCCCC(=O)n2c3ccccc3c3ccccc32)CC1
Ki [1]: 1910 nM

COc1ccccc1N1CCN(CCCCC(=O)n2c3ccccc3c3ccccc32)CC1
Ki [1]: 30 nM
Ki [2]: 30 nM
Ki [3]: 122 nM
Ratio Ki (Homo sapiens [4]): 4.1
Ki [19]: 3740 nM
Ki [6]: 462 nM
Ratio Ki (Homo sapiens [7]): 15
Ki [18]: 451 nM
Ki [9]: 93 nM
Ratio Ki (Homo sapiens [10]): 3.1
Ki [11]: 1170 nM
Ratio Ki (Homo sapiens [12]): 39
inhibition [13]: 24%
Ki [14]: 5 nM
Ratio Ki (Homo sapiens [15]): 0.17
inhibition [20]: 44%

O=C(CCCCN1CCC(c2ccccc2)CC1)n1c2ccccc2c2ccccc21
Ki [1]: 153 nM

CN1CCN(CCCCC(=O)n2c3ccccc3c3ccccc32)CC1
inhibition [21]: 40%

O=C(CCCCN1CCOCC1)n1c2ccccc2c2ccccc21
inhibition [21]: 47%

O=C(CCCCN1CCCCCC1)n1c2ccccc2c2ccccc21
Ki [1]: 949 nM

CC1CC(C)CN(CCCCC(=O)n2c3ccccc3c3ccccc32)C1 (stereo unspecified)
Ki [1]: 1400 nM

CC(=O)N1CCN(CCCCCC(=O)n2c3ccccc3c3ccccc32)CC1
Ki [1]: 2340 nM
